“And” between values parts separate entries of the source, which are not always exact repeats. Equal entries are not always repeated. *1 amine or outer side, *2 acyl side, *3 side chain or, on linkers, in order; H or OH if unused. Where a SMILES comes first, the peptide text is derived from it. Bridges are numbered along the chain shown (N, C = ends). [ ]: non-standard residue; d: D form. The star is where a group is joined. hTyr(3S-OH,4S-OH,3'-OSO3H) = N[C@H](C(=O)O)[C@H](O)[C@@H](O)c1ccc(O)c(OS(=O)(=O)O)c1; Orn(4R-OH,5R-OH) = O=C([C@H](C[C@@H](O)[C@@H](O)N[*:3])N[*:1])[*:2]; Pro(3S-OH,4S-Me) = C[C@H]1CN[C@H](C(=O)O)[C@H]1O; X1 = CCCCCOc1ccc(-c2cc(-c3ccc(C(=O)*)cc3)no2)cc1; Gln(3R-OH) = NC(=O)C[C@@H](O)[C@H](N)C(=O)O; Hyp = O=C(O)[C@@H]1C[C@@H](O)CN1
Test system: C. elegans
Settings: Table S2, C. elegans SS assay, 110 μM, averages of 4 data points

| Compound | Percentage of motility inhibition 0 h | Percentage of motility inhibition 24 h |
| --- | --- | --- |
| O=C1C[C@@H](c2ccc(O)c(O)c2)Oc2cc(O[C@@H]3O[C@H](CO)[C@@H](O)[C@H](O)[C@H]3O)cc(O)c21 [Eriodictyol‐7‐O‐glucoside] | 11% | 4% |
| COc1ccc2c(C)c3[n+](cc2c1OC)CCc1cc2c(cc1-3)OCO2.[Cl-] [13‐Methylberberine (chloride)] | 0% | 0% |
| CC1(C)S[C@@H]2[C@H](NC(=O)[C@H](N)c3ccc(O)cc3)C(=O)N2[C@H]1C(=O)O.O.O.O [Amoxicillin (trihydrate)] | 27% | 0% |
| COc1cc(-c2oc3cc(OC)c(OC)c(O)c3c(=O)c2OC)ccc1O [Chrysosplenetin] | 17% | 6% |
| C[C@H](CC[C@@H](O[C@@H]1O[C@H](CO[C@@H]2O[C@H](CO)[C@@H](O)[C@H](O)[C@H]2O)[C@@H](O)[C@H](O)[C@H]1O)C(C)(C)O)[C@H]1CC[C@@]2(C)[C@@H]3CC=C4[C@@H](CC[C@H](O[C@@H]5O[C@H](CO)[C@@H](O)[C@H](O)[C@H]5O)C4(C)C)[C@]3(C)[C@H](O)C[C@]12C [Mogroside III] | 7% | 3% |
| C=C1CC[C@@H]2[C@](C)(COC(=O)CCC(=O)O)[C@H](OC(=O)CCC(=O)O)CC[C@@]2(C)[C@@H]1/C=C/C1=CCOC1=O [Dehydroandrographolide succinate] | 7% and 0% |  |
| Cl.OC(c1cc(C(F)(F)F)nc2c(C(F)(F)F)cccc12)C1CCCCN1 (stereo not shown) [Mefloquine (hydrochloride)] | 45% | 22% |
| CC(C)(C)NC(=O)[C@@H]1CN(Cc2cccnc2)CCN1C[C@@H](O)C[C@@H](Cc1ccccc1)C(=O)N[C@H]1c2ccccc2C[C@H]1O.O=S(=O)(O)O [Indinavir (sulfate)] | 8% | 10% |
| CCN1C[C@]2(COC)[C@H](O)C[C@H](OC)[C@@]34[C@@H]5C[C@@]6(O)[C@H](OC(=O)c7ccccc7)[C@@H]5[C@@](O)([C@@H]([C@H](OC)[C@H]23)[C@@H]14)[C@@H](O)[C@@H]6OC [Benzoylaconine] | 2% | 0% |
| C[C@H](CCC(=O)NCC(=O)O)[C@H]1CC[C@H]2[C@@H]3CC[C@@H]4C[C@H](OS(=O)(=O)O)CC[C@]4(C)[C@H]3CC[C@]12C [Glycolithocholic acid 3-sulfate] | 13% | 33% |
| C[C@@H]1O[C@H]2O[C@H]3[C@@H](OC[C@H](O)[C@@H]3O)OC(=O)[C@]34CCC(C)(C)C[C@H]3C3=CC[C@@H]5[C@@]6(C)C[C@H](O)[C@H](O[C@@H]7O[C@H](CO)[C@@H](O)[C@H](O)[C@H]7O[C@@H]7O[C@@H](COC(=O)C[C@](C)(O)CC(=O)O[C@@H]1[C@@H](O[C@@H]1OC[C@@H](O)[C@H](O)[C@H]1O)[C@H]2O)[C@H](O)[C@@H](O)[C@@H]7O)[C@@](C)(CO)[C@@H]6CC[C@@]5(C)[C@]3(C)C[C@H]4O [Tubeimoside III] | 0% | 36% |
| CC(C)[C@]12O[C@H]1[C@@H]1O[C@@]13[C@@]1(C)CCC4=C(COC4=O)[C@@H]1C[C@@H]1O[C@@]13C2=O [Triptonide] | 7% | 13% |
| CC(C)=CCC[C@H](C)[C@@H]1CC[C@]2(C)C3=C(CC[C@@]12C)[C@@]1(C)CC[C@H](O)C(C)(C)[C@@H]1CC3 [Tirucallol] | 12% | 39% |
| COc1ccc(-c2coc3cc(OC)ccc3c2=O)cc1 [4',7‐Dimetho xyisoflavone] | 21% | 27% |
| CC1(C)C2=CCCC(C)(C)[C@]23CC[C@H]1C3 [Isolongifolene] | 2% | 39% |
| OC1C[C@H]2CC[C@@H](C1)N2 (stereo partly shown) [Nortropine] | 12% | 11% |
| COc1ccc([C@@H]2COc3cc(O[C@@H]4O[C@H](CO)[C@@H](O)[C@H](O)[C@H]4O)ccc3C2)c(O)c1OC [Isomucronulatol 7‐O‐glucoside] | 8% | 10% |
| COc1ccc(/C=C/C(=O)O[C@@H]2[C@H](O[C@@H]3O[C@@H](C)[C@H](O)[C@@H](O)[C@H]3O)[C@@H](O[C@@H]3O[C@@H](C)[C@H](O[C@@H]4OC[C@@H](O[C@@H]5O[C@H](CO)[C@H](O)[C@H](O)[C@H]5O)[C@H](O)[C@H]4O)[C@@H](O)[C@H]3O)[C@H](OC(=O)[C@]34CCC(C)(C)C[C@H]3C3=CC[C@@H]5[C@@]6(C)C[C@H](O)[C@H](O[C@@H]7O[C@H](CO)[C@@H](O)[C@H](O)[C@H]7O)[C@@](C)(C(=O)O)[C@@H]6CC[C@@]5(C)[C@]3(CO)CC4)O[C@@H]2C)cc1 [Onjisaponin B] | 30% | 33% |
| CC(C)=CCC[C@@H](C)CCO [(R)-Citronellol] | 1% | 14% |
| C[C@@]12C[C@H](c3ccoc3)O[C@@]13C[C@H](OC3=O)[C@H]1[C@H]2C[C@@H]2C[C@H]1C(=O)O2 [Diosbulbin B] | 0% | 31% |

| Compound | Percentage of motility inhibition 0 h | Percentage of motility inhibition 24 h |
| --- | --- | --- |
| O=C(O)c1cc(=O)c2ccccc2[nH]1 [Kynurenic acid] | 17% | 0% |
| CC1(C)[C@@H](O[C@H]2O[C@H](C(=O)[O-])[C@@H](O)[C@H](O)[C@H]2O[C@@H]2O[C@H](C(=O)[O-])[C@@H](O)[C@H](O)[C@H]2O)CC[C@]2(C)[C@H]3C(=O)C=C4[C@@H]5C[C@@](C)(C(=O)O)CC[C@]5(C)CC[C@@]4(C)[C@]3(C)CC[C@@H]12.[K+].[K+] [Dipotassium glycyrrhizinate] | 17% and 15% | 3% |
| Cl.O[C@H]1CCN2Cc3ccccc3N=C12 [Vasicine (hydrochloride)] | 0% | 2% |
| (+)‐Sparteine | 5% | 13% |
| COc1cc(-c2coc3cc4c(c(O)c3c2=O)OCO4)cc(O)c1OC [Dichotomitin] | 34% | 22% |
| C=C(C)[C@@H]1CC[C@]2(C(=O)O)CC[C@]3(C)[C@H](CC[C@@H]4[C@@]5(C)CCC(=O)C(C)(C)[C@@H]5CC[C@]43C)[C@@H]12 [Betulonic acid] | 24% | 26% |
| O=C([O-])[C@H](O)[C@@H](O)[C@H](O)[C@H](O)CO.[Na+] [Gluconate (sodium)] | 15% | 3% |
| O.O=C([O-])CC(O)(CC(=O)[O-])C(=O)[O-].[K+].[K+].[K+] [Citric acid (tripotassium hydrate)] | 28% | 4% |
| Cl.O=C(c1ccc(OCCN2CCCCC2)cc1)c1c(-c2ccc(O)cc2)sc2cc(O)ccc12 [Raloxifene (hydrochloride)] | 32% | 0% |
| C[C@@]12CCc3occc3[C@H]1CC[C@@]13C[C@@H](CC[C@H]12)[C@@](O)(CO)C3 [Cafestol] | 0% | 28% |
| CC(=O)OC[C@@]12CC[C@@H](C)[C@](C)(CCC3=CC(=O)OC3)[C@H]1C[C@H](O)C=C2CO [Blinin] | 0% | 7% |
| C=CC/C(=N\OS(=O)(=O)[O-])S[C@@H]1O[C@H](CO)[C@@H](O)[C@H](O)[C@H]1O.O.[K+] [Sinigrin (hydrate)] | 0% | 19% |
| Cc1ncccc1O [3‐Hydroxy‐2‐methylpyridine] | 15% | 0% |
| CC(=O)O[C@@H]1C[C@@]23C[C@@]24CC[C@H](O[C@@H]2OC[C@H](O)[C@H](O)[C@H]2O)C(C)(C)[C@@H]4CC[C@H]3[C@]2(C)[C@@H](O)[C@]34O[C@H](C[C@@H](C)[C@@H]3[C@@]12C)[C@@H](C(C)(C)O)O4 [Cimiracemoside D] | 0% | 0% |
| CCCCCOc1ccc(-c2cc(-c3ccc(C(=O)N[C@H]4C[C@@H](O)[C@@H](O)NC(=O)[C@@H]5[C@@H](O)[C@@H](C)CN5C(=O)[C@H]([C@H](O)CC(N)=O)NC(=O)[C@H]([C@H](O)[C@@H](O)c5ccc(O)c(OS(=O)(=O)[O-])c5)NC(=O)[C@@H]5C[C@@H](O)CN5C(=O)[C@H]([C@@H](C)O)NC4=O)cc3)no2)cc1.[Na+] [Micafungin (sodium)] (X1-[Orn(4R-OH,5R-OH)]T[Hyp][hTyr(3S-OH,4S-OH,3'-OSO3H)][Gln(3R-OH)][Pro(3S-OH,4S-Me)]; lactam 1-C) | 3% | 0% |
| Epimedin A | 13% | 13% |
| C[C@@H]1CC[C@@]2(NC1)O[C@H]1C[C@H]3[C@@H]4CC=C5C[C@@H](O[C@@H]6O[C@H](CO)[C@@H](O[C@@H]7O[C@@H](C)[C@H](O)[C@@H](O)[C@H]7O)[C@H](O)[C@H]6O)CC[C@]5(C)[C@H]4CC[C@]3(C)[C@H]1[C@@H]2C [Khasianine] | 19% | 10% |
| C[C@H]1CC[C@@H]2N(C1)C[C@H]1[C@@H]3C[C@H]4[C@@H](C[C@@H](O)[C@H]5C[C@@H](O)CC[C@@]54C)[C@@H]3CC[C@@H]1[C@]2(C)O [Isoverticine] | 0% | 0% |
| COC(=O)CC(NC(=O)[C@@H](NC(=O)OC(C)C)C(C)C)c1ccc(Cl)cc1 (stereo partly shown) [Valifenalate] | 26% | 3% |
| O=c1cc(-c2ccc(O)c(O)c2)oc2cc(O[C@@H]3O[C@H](CO)[C@@H](O)[C@H](O)[C@H]3O)cc(O)c12 [Cynaroside] | 20% | 0% |

— PMC11855827, “High-Throughput Screening of Five Compound Libraries for Anthelmintic Activity and Toxicity Leads to the Discovery of Two Flavonoid Compounds” (International Journal of Molecular Sciences, 2025)
